Laboratory results from PubChem BioAssay AID1963849 (Molecular Pharmacology Branch, DTP, NCI, 2024).

Test system: 299254-011-R-J1-PDC complex spheroid viability
Assay: Anticancer human tumor 299254-011-R-J1-PDC patient-derived melanoma cell line growth inhibition [POLQ]
Details: for IC50: curve of first compound; for viability, T/C: stronger effect = lower value
Protocol: Multicellular complex tumor spheroid response to Polymerase (POL) inhibitors (novobiocin, ART-558, RP6685) in combination with a variety of drugs and investigational agents in selected tumor cell lines
The POL inhibitors (novobiocin, ART-558, and RP6685) were evaluated both individually and in combination with standard of care and investigational anticancer small molecules within a complex spheroid model of solid tumors. . Complex spheroids include a stromal component modeled by human endothelial cells (HUVEC) and fibroblasts modeled by human mesenchymal stem cells (MSCs). The concentration ranges selected for each drug and investigational agent were based upon clinically achievable concentrations if the clinical Cmax of the agent was known.
Compounds. The drugs and investigational agents: novobiocin (NSC847541), ART-558 (NSC835418), RP-6685 (NSC848927), peposertib (NSC802822), ceralasertib (NSC780249), elimusertib (NSC800525), camonsertib (NSC841442), AZD-1390 (NSC803789), olaparib (NSC753686), talazoparib (NSC767125), rucaparib (NSC756644), sotorasib (NSC818433), MRTX-1133 (NSC836407), SN-38 (NSC673596), topotecan (NSC609699), epotoside (NSC141540), doxorubicin (NSC123127), gemcitabine (NSC613327), 5-fluorouracil (NSC19893), paclitaxel (NSC125973), vemurafenib (NSC761431), MSA-2 (NSC828583), SN-011 (NSC837082), adavosertib (NSC754352), prexasertib (NSC758257), carboplatin (NSC241240) and oxaliplatin (NSC266046), were obtained from the National Cancer Institute (NCI) Developmental Therapeutics Program Chemical Repository (21). The FDA-approved anticancer drug set is available from the Developmental Therapeutics Program at https://dtp.cancer.gov/organization/dscb/obtaining/. […] The stock solutions were prepared in dimethyl sulfoxide (DMSO, Sigma-Aldrich, St. Louis, MO, cat. D2650), except for the platinum compounds which were prepared in saline (Quality Biological, Gaithersburg, MD, cat. 114-055-101), at 800-fold the tested concentration and stored at -70 degrees C prior to their use. All drugs and investigational agents were tested over a range starting from a high concentration at or near the clinical Cmax and decreasing in half-log increments. If the clinical Cmax for an agent had not been determined, the highest concentration tested was 10 microM, except for SN-38, which was tested at a high concentration of 1 microM.
Cell Culture. All cells were maintained in an incubator at 37 degrees C and 5% CO2 with 95% humidity. The PDC lines were cultured according to standard operating procedures established by the NCI PDMR (https://pdmr.cancer.gov). Table 3 of the manuscript, lists the cell lines along with the number of the three cell types plated to form the mct-spheroids and media for tumor cell growth. After thawing, all PDC lines, except 997537-175-T-J1-PDC and 415267-285-R-J2-PDC, were cultured in Matrigel-coated flasks prepared with a working solution of 1X Ham's F-12 nutrient mix, without supplementation (Thermo Fisher Scientific, cat. 11765054), 100 U/mL penicillin-streptomycin (Thermo Fisher Scientific, cat. 15140122), and 2.5% Matrigel (Corning Inc., Corning, NY, cat. 354248) for the first three passages. The two PDC lines 997537-175-T-J1-PDC and 415267-285-R-J2-PDC were cultured on uncoated flasks. The 857933-349-R-J2-PDC line was cultured in 6C/Colon 1B media containing advanced DMEM/F-12 (Thermo Fisher Scientific, cat. 12634028), 10 mM HEPES (Thermo Fisher Scientific, cat. 15630080), 1X GlutaMAX supplement (Thermo Fisher Scientific, cat. 35050061), 0.1 mg/mL primocin (InvivoGen, San Diego, CA, cat. ant-pm-2), 10% defined fetal bovine serum, heat inactivated (HyClone Laboratories Inc., Logan, UT, cat. SH30070.03HI), 50% L-WRN conditioned media (ATCC, cat. CRL-3276), 1.25 mM N-Acetyl-L-cysteine (Sigma-Aldrich, cat. A9165), 10 mM nicotinamide (Sigma-Aldrich, cat. N0636), 1X B-27 supplement (Thermo Fisher Scientific, cat. 17504044), 1X N-2 supplement (Thermo Fisher Scientific, cat. […]

[1] = second compound 0.0316 µM, first compound 0.0316 µM
[2] = second compound 0.0316 µM, first compound 0.1 µM
[3] = second compound 0.1 µM, first compound 0.0316 µM
[4] = second compound 0.1 µM, first compound 0.1 µM
[5] = second compound 0.316 µM, first compound 0.0316 µM
[6] = second compound 0.316 µM, first compound 0.1 µM
[7] = second compound 1 µM, first compound 0.0316 µM
[8] = second compound 1 µM, first compound 0.1 µM
[9] = second compound 3.16 µM, first compound 0.0316 µM
[10] = second compound 3.16 µM, first compound 0.1 µM
[11] = second compound 10 µM, first compound 0.0316 µM
[12] = second compound 10 µM, first compound 0.1 µM
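Further: spheroids exposed to drugs for one week before measurement.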
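Wherever viability, T/C is given: percent viability relative to DMSO vehicle control taken as 100%.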

Question: What does the source list for `C=CC(=O)N1CCN(c2nc(=O)n(-c3c(C)ccnc3C(C)C)c3nc(-c4c(O)cccc4F)c(F)cc23)C(C)C1` (centres undefined) + COC1C(OC(N)=O)C(O)C(Oc2ccc3c(O)c(NC(=O)c4ccc(O)c(CC=C(C)C)c4)c(=O)oc3c2C)OC1(C)C?
Answer: IC50 (second compound 0.0316 µM): > 10 µM; IC50 (second compound 0.1 µM): > 10 µM; IC50 (second compound 0.316 µM): > 10 µM; IC50 (second compound 1 µM): > 10 µM; IC50 (second compound 3.16 µM): > 10 µM; IC50 (second compound 10 µM): > 10 µM; viability, T/C [1]: 75.8%; viability, T/C [2]: 72.7%; viability, T/C (second compound 0.0316 µM, first compound 0.316 µM): 64.3%; viability, T/C (second compound 0.0316 µM, first compound 1 µM): 66.3%; viability, T/C (second compound 0.0316 µM, first compound 3.16 µM): 69%; viability, T/C (second compound 0.0316 µM, first compound 10 µM): 65.1%; viability, T/C [3]: 73.9%; viability, T/C [4]: 69.6%; viability, T/C (second compound 0.1 µM, first compound 0.316 µM): 64.8%; viability, T/C (second compound 0.1 µM, first compound 1 µM): 63.1%; viability, T/C (second compound 0.1 µM, first compound 3.16 µM): 59.4%; viability, T/C (second compound 0.1 µM, first compound 10 µM): 73.4%; viability, T/C [5]: 91.4%; viability, T/C [6]: 75.5%; viability, T/C (second compound 0.316 µM, first compound 0.316 µM): 69.7%; viability, T/C (second compound 0.316 µM, first compound 1 µM): 66.6%; viability, T/C (second compound 0.316 µM, first compound 3.16 µM): 70.4%; viability, T/C (second compound 0.316 µM, first compound 10 µM): 54.2%; viability, T/C [7]: 83.5%; viability, T/C [8]: 70.7%; viability, T/C (second compound 1 µM, first compound 0.316 µM): 60.7%; viability, T/C (second compound 1 µM, first compound 1 µM): 73.3%; viability, T/C (second compound 1 µM, first compound 3.16 µM): 66.1%; viability, T/C (second compound 1 µM, first compound 10 µM): 70.3%; viability, T/C [9]: 77.1%; viability, T/C [10]: 65.5%; viability, T/C (second compound 3.16 µM, first compound 0.316 µM): 62.3%; viability, T/C (second compound 3.16 µM, first compound 1 µM): 64.7%; viability, T/C (second compound 3.16 µM, first compound 3.16 µM): 69.3%; viability, T/C (second compound 3.16 µM, first compound 10 µM): 60.1%; viability, T/C [11]: 82.9%; viability, T/C [12]: 74.5%; viability, T/C (second compound 10 µM, first compound 0.316 µM): 63.5%; viability, T/C (second compound 10 µM, first compound 1 µM): 58.7%; viability, T/C (second compound 10 µM, first compound 3.16 µM): 62.5%; viability, T/C (second compound 10 µM, first compound 10 µM): 56.8%

Question: With `Cn1ncnc1[C@H]1c2n[nH]c(=O)c3cc(F)cc(c23)N[C@@H]1c1ccc(F)cc1` + Cc1cccc(N(C)C(=O)C2C(O)CCN2c2nc(C)cc(C(F)(F)F)c2C#N)c1 as the molecule, how does the IC50 (second compound 0.0316 µM) read?
Answer: > 0.1 µM

Question: And the IC50 (second compound 0.1 µM)?
Answer: > 0.1 µM

Question: And the IC50 (second compound 0.316 µM)?
Answer: > 0.1 µM

Question: And the IC50 (second compound 1 µM)?
Answer: > 0.1 µM

Question: And the IC50 (second compound 3.16 µM)?
Answer: > 0.1 µM

Question: What about the IC50 (second compound 10 µM) of the same molecule?
Answer: > 0.1 µM

Question: What about the viability, T/C (second compound 0.0316 µM, first compound 0.000316 µM) of the same molecule?
Answer: 102%

Question: And the viability, T/C (second compound 0.0316 µM, first compound 0.001 µM)?
Answer: 91.6%

Question: What about the viability, T/C (second compound 0.0316 µM, first compound 0.00316 µM) of the same molecule?
Answer: 95.9%

Question: And the viability, T/C (second compound 0.0316 µM, first compound 0.01 µM)?
Answer: 110%

Question: And the viability, T/C [1]?
Answer: 112%

Question: What about the viability, T/C [2] of the same molecule?
Answer: 113%

Question: And the viability, T/C (second compound 0.1 µM, first compound 0.000316 µM)?
Answer: 119%

Question: And the viability, T/C (second compound 0.1 µM, first compound 0.001 µM)?
Answer: 108%

Question: And the viability, T/C (second compound 0.1 µM, first compound 0.00316 µM)?
Answer: 117%

Question: What about the viability, T/C (second compound 0.1 µM, first compound 0.01 µM) of the same molecule?
Answer: 106%

Question: What about the viability, T/C [3] of the same molecule?
Answer: 114%

Question: And the viability, T/C [4]?
Answer: 119%

Question: What about the viability, T/C (second compound 0.316 µM, first compound 0.000316 µM) of the same molecule?
Answer: 108%

Question: What about the viability, T/C (second compound 0.316 µM, first compound 0.001 µM) of the same molecule?
Answer: 96.4%

Question: And the viability, T/C (second compound 0.316 µM, first compound 0.00316 µM)?
Answer: 102%

Question: What about the viability, T/C (second compound 0.316 µM, first compound 0.01 µM) of the same molecule?
Answer: 114%

Question: And the viability, T/C [5]?
Answer: 106%

Question: And the viability, T/C [6]?
Answer: 102%

Question: And the viability, T/C (second compound 1 µM, first compound 0.000316 µM)?
Answer: 111%

Question: And the viability, T/C (second compound 1 µM, first compound 0.001 µM)?
Answer: 116%

Question: What about the viability, T/C (second compound 1 µM, first compound 0.00316 µM) of the same molecule?
Answer: 103%

Question: And the viability, T/C (second compound 1 µM, first compound 0.01 µM)?
Answer: 114%

Question: And the viability, T/C [7]?
Answer: 102%

Question: And the viability, T/C [8]?
Answer: 94.1%

Question: What about the viability, T/C (second compound 3.16 µM, first compound 0.000316 µM) of the same molecule?
Answer: 90.1%

Question: And the viability, T/C (second compound 3.16 µM, first compound 0.001 µM)?
Answer: 109%

Question: What about the viability, T/C (second compound 3.16 µM, first compound 0.00316 µM) of the same molecule?
Answer: 103%

Question: What about the viability, T/C (second compound 3.16 µM, first compound 0.01 µM) of the same molecule?
Answer: 111%

Question: What about the viability, T/C [9] of the same molecule?
Answer: 122%

Question: What about the viability, T/C [10] of the same molecule?
Answer: 114%

Question: And the viability, T/C (second compound 10 µM, first compound 0.000316 µM)?
Answer: 93.6%

Question: What about the viability, T/C (second compound 10 µM, first compound 0.001 µM) of the same molecule?
Answer: 107%

Question: What about the viability, T/C (second compound 10 µM, first compound 0.00316 µM) of the same molecule?
Answer: 113%

Question: What about the viability, T/C (second compound 10 µM, first compound 0.01 µM) of the same molecule?
Answer: 94%

Question: What about the viability, T/C [11] of the same molecule?
Answer: 98%

Question: And the viability, T/C [12]?
Answer: 99%
